Reference: patent US10508088B2, “Methods using HDAC11 inhibitors” (FORMA Therapeutics, Inc., priority 2016, dated 2019)

What follows are molecules tested against Full length human recombinant HDAC11 (Homo sapiens (Human), UniProt Q96DB2) (assay: Enzymatic HDAC11 assay, electrophoretic mobility shift). Settings: substrate FAM-RHKK(tri-fluor-Ac)-NH2, read-out: HDAC11 IC50 Range.
Format: biochemical
Experimental: The enzymatic HDAC11 assay was performed using electrophoretic mobility shift assay. Full length human recombinant HDAC11 protein was expressed in baculoviral system and purified by affinity chromatography. The enzymatic reactions were assembled in 384 well plates in a total volume of 25 μL in a reaction buffer composing: 100 mM HEPES, pH 7.5, 25 mM KCl, 0.1% bovine serum albumin, 0.01% Triton X-100, 1% DMSO (from compounds) 2 μM of the fluorescently labeled peptide substrate and enzyme. The enzyme was added at a final concentration of 10 nM. The peptide substrate FAM-RHKK(tri-fluor-Ac)-NH2 was used. The compounds were tested at 12 concentrations spaced by 3× dilution intervals. Negative control samples (0%-inhibition in the absence of inhibitor) and positive control samples (100%-inhibition) were assembled in replicates of four in each assay plate. The reactions were incubated at 25° C. and quenched by the addition of 45 μL of termination buffer (100 mM HEPES, pH 7.5, 0.01% Triton X-100, 0.05% SDS).
The terminated assay plates were analyzed on LabChip® 3000 microfluidic electrophoresis instrument (Perkin Elmer/Caliper Life Sciences). The fluorescence intensity of the electrophoretically separated de-acetylated product and substrate peptide was measured. Activity in each sample was determined as the product to sum ratio (PSR):P/(S+P), where P is the peak height of the product peptide and S is the peak height of the substrate peptide. Percent inhibition (Pinh) is determined using the following equation: Pinh=(PSR0%−PSRinh)/(PSR0%−PSR100%)*100,
where PSRinh is the product sum ratio in the presence of inhibitor, PSR0% is the average product sum ration in the absence of inhibitor and PSR100% is the average product sum ratio in 100%-inhibition control samples. The IC50 values of inhibitors were determined by fitting the percent inhibition curves with 4 parameter dose-response model using XLfit 4 software.

Full length human recombinant HDAC11, sequence (Q96DB2 whole entry): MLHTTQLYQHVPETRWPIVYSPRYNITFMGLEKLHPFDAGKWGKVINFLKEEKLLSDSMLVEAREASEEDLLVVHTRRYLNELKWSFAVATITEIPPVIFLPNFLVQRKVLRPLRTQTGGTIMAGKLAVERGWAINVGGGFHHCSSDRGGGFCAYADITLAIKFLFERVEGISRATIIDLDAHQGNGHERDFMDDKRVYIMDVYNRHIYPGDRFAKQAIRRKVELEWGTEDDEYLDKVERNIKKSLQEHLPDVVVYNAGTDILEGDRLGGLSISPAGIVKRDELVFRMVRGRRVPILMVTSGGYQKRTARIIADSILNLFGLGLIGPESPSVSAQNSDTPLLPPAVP

| IC50 | Compound |
| --- | --- |
| > 1 µM | O=C(NO)c1cccc2c1CC1(CCN(Cc3cc(F)cc(F)c3)C1=O)C2 (centres unmarked) [II-28, 1′-(3,5-difluorobenzyl)-N-hydroxy-2′-oxo-1,3-dihydrospiro[indene-2,3′-pyrrolidine]-4-carboxamide] |
| > 1 µM | O=C(NO)c1cccc2c1OC1(CC2)CCN(S(=O)(=O)C2CCCCC2)CC1 [II-76, 1′-(cyclohexylsulfonyl)-N-hydroxyspiro[chromane-2,4′-piperidine]-8-carboxamide] |
| < 0.5 µM | O=C(NO)c1cccc2c1CCC1(CCN(Cc3ccc(C(F)(F)F)c(F)c3)C1=O)C2 (centres unmarked) [II-86, 1′-(3-fluoro-4-(trifluoromethyl)benzyl)-N-hydroxy-2′-oxo-3,4-dihydro-1H-spiro[naphthalene-2,3′-pyrrolidine]-5-carboxamide] |
| > 1 µM | O=C(NO)c1cccc2c1CC1(CCN(CCN3CCOCC3)C1=O)C2 (centres unmarked) [II-52, N-hydroxy-1′-(2-morpholinoethyl)-2′-oxo-1,3-dihydrospiro[indene-2,3′-pyrrolidine]-4-carboxamide] |
| < 0.5 µM | O=C(NO)c1cccc2c1CC1(CCN(Cc3ccc(Cl)cc3)C1=O)C2 (centres unmarked) [II-1, 1′-(4-chlorobenzyl)-N-hydroxy-2′-oxo-1,3-dihydrospiro[indene-2,3′-pyrrolidine]-4-carboxamide] |
| < 0.5 µM | O=C(NO)c1cccc2c1CCC1(CCN(Cc3ccc(Cl)c(C(F)(F)F)c3)C1=O)C2 (centres unmarked) [II-84, 1′-(4-chloro-3-(trifluoromethyl)benzyl)-N-hydroxy-2′-oxo-3,4-dihydro-1H-spiro[naphthalene-2,3′-pyrrolidine]-5-carboxamide] |
| > 1 µM | O=C(NO)c1cccc2c1CC1(CCN(CC3CC3)C1=O)C2 (centres unmarked) [II-55, 1′-(cyclopropylmethyl)-N-hydroxy-2′-oxo-1,3-dihydrospiro[indene-2,3′-pyrrolidine]-4-carboxamide] |
| > 1 µM | O=C(NO)c1cccc2c1CC1(CCN(Cc3cc(-c4ccccc4)no3)C1=O)C2 (centres unmarked) [II-46, N-hydroxy-2′-oxo-1′-((3-phenylisoxazol-5-yl)methyl)-1,3-dihydrospiro[indene-2,3′-pyrrolidine]-4-carboxamide] |
| > 1 µM | O=C(NO)c1cccc2c1CC1(CCN(CCCc3ccccc3)C1=O)C2 (centres unmarked) [II-15, N-hydroxy-2′-oxo-1′-(3-phenylpropyl)-1,3-dihydrospiro[indene-2,3′-pyrrolidine]-4-carboxamide] |
| > 1 µM | COc1cc(CN2CCC3(Cc4cccc(C(=O)NO)c4C3)C2=O)cc(OC)c1 (centres unmarked) [II-40, 1′-(3,5-dimethoxybenzyl)-N-hydroxy-2′-oxo-1,3-dihydrospiro[indene-2,3′-pyrrolidine]-4-carboxamide] |
| > 1 µM | O=C(NO)c1cccc2c1CC1(CCN(C3CC3)C1=O)C2 (centres unmarked) [II-9, 1′-cyclopropyl-N-hydroxy-2′-oxo-1,3-dihydrospiro[indene-2,3′-pyrrolidine]-4-carboxamide] |
| > 1 µM | O=C(NO)c1cccc2c1CCC1(CCN(c3ccccc3C(F)(F)F)C1=O)C2 (centres unmarked) [II-90, N-hydroxy-2′-oxo-1′-(2-(trifluoromethyl)phenyl)-3,4-dihydro-1H-spiro[naphthalene-2,3′-pyrrolidine]-5-carboxamide] |
| > 1 µM | O=C(NO)c1cccc2c1CC1(CCN(Cc3ccc(Cl)cc3)CC1)C2 [II-62, 1′-(4-chlorobenzyl)-N-hydroxy-1,3-dihydrospiro[indene-2,4′-piperidine]-4-carboxamide] |
| > 1 µM | O=C(NO)c1cccc2c1CC1(CC2)CCN(c2cccc(C(F)(F)F)c2)C1=O (centres unmarked) [II-72, N-hydroxy-2′-oxo-1′-(3-(trifluoromethyl)phenyl)-3,4-dihydro-1H-spiro[naphthalene-2,3′-pyrrolidine]-8-carboxamide] |
| > 1 µM | O=C(NO)c1cccc2c1OC1(CC2)CCN(C(=O)c2ccc(F)cc2)CC1 [II-75, 1′-(4-fluorobenzoyl)-N-hydroxyspiro[chromane-2,4′-piperidine]-8-carboxamide] |
| > 1 µM | O=C(NO)c1cccc2c1CC1(CCN(Cc3cccc(C(F)(F)F)n3)C1=O)C2 (centres unmarked) [II-51, N-hydroxy-2′-oxo-1′-((6-(trifluoromethyl)pyridin-2-yl)methyl)-1,3-dihydrospiro[indene-2,3′-pyrrolidine]-4-carboxamide] |
| < 0.5 µM | O=C(NO)c1cccc2c1CC1(CCN(Cc3ccc(-c4ccccc4)cc3)C1=O)C2 (centres unmarked) [II-16, 1′-([1,1′-biphenyl]-4-ylmethyl)-N-hydroxy-2′-oxo-1,3-dihydrospiro[indene-2,3′-pyrrolidine]-4-carboxamide] |
| > 1 µM | O=C(NO)c1cccc2c1CC1(CCN(Cc3cccnc3)C1=O)C2 (centres unmarked) [II-24, N-hydroxy-2′-oxo-1 ‘-(pyridin-3-ylmethyl)-1,3-dihydrospiro[indene-2,3’-pyrrolidine]-4-carboxamide] |

| IC50 | Compound |
| --- | --- |
| < 0.5 µM | O=C(NO)c1cccc2c1CC1(CCN(Cc3ccc(C(F)(F)F)cc3)C1=O)C2 (centres unmarked) [II-6, N-hydroxy-2′-oxo-1′-(4-(trifluoromethyl)benzyl)-1,3-dihydrospiro[indene-2,3′-pyrrolidine]-4-carboxamide] |
| > 1 µM | O=C(NO)c1cccc2c1CC1(CCN(C3CC3)C1)C2 (centres unmarked) [II-57, 1′-cyclopropyl-N-hydroxy-1,3-dihydrospiro[indene-2,3′-pyrrolidine]-4-carboxamide] |
| > 1 µM | O=C(NO)c1cccc2c1CC1(CCN(Cc3cn(-c4ccccc4)nn3)C1=O)C2 (centres unmarked) [II-53] |
| > 1 µM | O=C(NO)c1cccc2c1CC1(CCN(c3ccccc3C(F)(F)F)C1=O)C2 (centres unmarked) [II-13, N-hydroxy-2′-oxo-1′-(2-(trifluoromethyl)phenyl)-1,3-dihydrospiro[indene-2,3′-pyrrolidine]-4-carboxamide] |
| > 1 µM | COc1cccc(CN2CCC3(Cc4cccc(C(=O)NO)c4C3)C2=O)c1 (centres unmarked) [II-20, N-hydroxy-1′-(3-methoxybenzyl)-2′-oxo-1,3-dihydrospiro[indene-2,3′-pyrrolidine]-4-carboxamide] |
| > 1 µM | CN(C)C(=O)N1CCC2(CCc3cccc(C(=O)NO)c3O2)CC1 [II-74, N8-hydroxy-N1′,N1′-dimethylspiro[chromane-2,4′-piperidine]-1′,8-dicarboxamide] |
| > 1 µM | CN1CCC2(Cc3cccc(C(=O)NO)c3C2)C1=O (centres unmarked) [II-2, N-hydroxy-1′-methyl-2′-oxo-1,3-dihydrospiro[indene-2,3′-pyrrolidine]-4-carboxamide] |
| > 1 µM | CC(=O)N1CCC2(Cc3cccc(C(=O)NO)c3C2)C1 (centres unmarked) [II-59, 1′-acetyl-N-hydroxy-1,3-dihydrospiro[indene-2,3′-pyrrolidine]-4-carboxamide] |
| > 1 µM | O=C(NO)c1cccc2c1CC1(CCN(Cc3cccc(F)c3)C1=O)C2 (centres unmarked) [II-26, 1′-(3-fluorobenzyl)-N-hydroxy-2′-oxo-1,3-dihydrospiro[indene-2,3′-pyrrolidine]-4-carboxamide] |
| > 1 µM | CS(=O)(=O)c1ccc(CN2CCC3(Cc4cccc(C(=O)NO)c4C3)C2=O)cc1 (centres unmarked) [II-8, N-hydroxy-1′-(4-(methylsulfonyl)benzyl)-2′-oxo-1,3-dihydrospiro[indene-2,3′-pyrrolidine]-4-carboxamide] |
| > 1 µM | COc1ccccc1CN1CCC2(Cc3cccc(C(=O)NO)c3C2)C1=O (centres unmarked) [II-36, N-hydroxy-1′-(2-methoxybenzyl)-2′-oxo-1,3-dihydrospiro[indene-2,3′-pyrrolidine]-4-carboxamide] |
| 0.5 to 1 µM | O=C(NO)c1cccc2c1CC1(CC2)CCN(Cc2ccc(C(F)(F)F)cc2)C1=O (centres unmarked) [II-70, N-hydroxy-2′-oxo-1′-(4-(trifluoromethyl)benzyl)-3,4-dihydro-1H-spiro[naphthalene-2,3′-pyrrolidine]-8-carboxamide] |
| 0.5 to 1 µM | O=C(NO)c1cccc2c1CC1(CC2)CCN(c2ccc(C(F)(F)F)cc2)C1=O (centres unmarked) [II-71, N-hydroxy-2′-oxo-1′-(4-(trifluoromethyl)phenyl)-3,4-dihydro-1H-spiro[naphthalene-2,3′-pyrrolidine]-8-carboxamide] |
| < 0.5 µM | O=C(NO)c1cccc2c1CC1(CCN(Cc3ccccc3-c3ccccc3)C1=O)C2 (centres unmarked) [II-37, 1′-([1,1′-biphenyl]-2-ylmethyl)-N-hydroxy-2′-oxo-1,3-dihydrospiro[indene-2,3′-pyrrolidine]-4-carboxamide] |
| 0.5 to 1 µM | O=C(NO)c1cccc2c1CC1(CCN(Cc3ccccc3OC(F)(F)F)C1=O)C2 (centres unmarked) [II-32, N-hydroxy-2′-oxo-1′-(2-(trifluoromethoxy)benzyl)-1,3-dihydrospiro[indene-2,3′-pyrrolidine]-4-carboxamide] |
| > 1 µM | O=C(NO)c1cccc2c1CCC1(CCN(Cc3ccc(Cl)cc3)C1=O)C2 (centres unmarked) [II-87, 1′-(4-chlorobenzyl)-N-hydroxy-2′-oxo-3,4-dihydro-1H-spiro[naphthalene-2,3′-pyrrolidine]-5-carboxamide] |
| > 1 µM | O=C(NO)c1cccc2c1CC1(CCN(Cc3ccc(C(F)(F)F)nc3)C1=O)C2 (centres unmarked) [II-48, N-hydroxy-2′-oxo-1′-((6-(trifluoromethyl)pyridin-3-yl)methyl)-1,3-dihydrospiro[indene-2,3′-pyrrolidine]-4-carboxamide] |
